Test results taken from ChEMBL document CHEMBL1201862, “PubChem BioAssay data set” (2004).
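48-hour exposure; five concentrations; linearly interpolated endpoints. Here, GI50 denotes the concentration required for 50% inhibition of growth.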 The source made the active and inactive calls. Rule as the data show it: active = GI50 up to about 1.1 µM and inactive = higher.

Legend:
Experiment in all cases: NCI-60 cell line screen, 48 h
[1] = test system: MDA-MB-231
[2] = test system: MCF7
[3] = test system: M14
[4] = test system: NCI-H23
[5] = test system: ACHN
[6] = test system: SF-295
[7] = test system: PC-3
[8] = test system: HT-29
[9] = test system: NCI/ADR-RES
[10] = test system: SNB-19
[11] = test system: A498
[12] = test system: SW-620
[13] = test system: DU-145
[14] = test system: HCC 2998
[15] = test system: UACC-257
[16] = test system: NCI-H460
[17] = test system: COLO 205
[18] = test system: OVCAR-3
[19] = test system: OVCAR-8
[20] = test system: MOLT-4

Compound	GI50 [1]	GI50 [2]	GI50 [3]	GI50 [4]	GI50 [5]	GI50 [6]	GI50 [7]	GI50 [8]	GI50 [9]	GI50 [10]	GI50 [11]	GI50 [12]	GI50 [13]	GI50 [14]	GI50 [15]	GI50 [16]	GI50 [17]	GI50 [18]	GI50 [19]	GI50 [20]
O=C1CSC(c2ccccc2)N1c1ccc(-n2c(-c3ccccc3)nc3ccccc3c2=O)cc1 (stereo not given)	47.2 µM (inactive)	> 92 µM (inactive)	> 100 µM (inactive)	> 71.3 µM (inactive)	47.2 µM (inactive)	63.2 µM (inactive)	33.9 µM (inactive)	61.4 µM (inactive)	64.6 µM (inactive)	> 69.2 µM (inactive)	> 100 µM (inactive)	> 100 µM (inactive)	> 100 µM (inactive)	> 100 µM (inactive)	> 100 µM (inactive)	46.3 µM (inactive)	54.2 µM (inactive)	64.1 µM (inactive)	61.7 µM (inactive)	28.1 µM (inactive)
CC1(C)C2CC3C(C)(C2)C31c1cc(Cl)ccc1N (stereo not given)	16.2 µM (inactive)	13.4 µM (inactive)	12.4 µM (inactive)	12.3 µM (inactive)	15.6 µM (inactive)	15.2 µM (inactive)	13.8 µM (inactive)	14.5 µM (inactive)	14.7 µM (inactive)	18.9 µM (inactive)	17.7 µM (inactive)	15 µM (inactive)	14 µM (inactive)	15 µM (inactive)	13.4 µM (inactive)	15.1 µM (inactive)	19.1 µM (inactive)	16.7 µM (inactive)	15.1 µM (inactive)	8.36 µM (inactive)
Cc1nc2n(c1/C=C1/C(=O)Nc3ccccc31)CCS2	32.7 µM (inactive)	24.3 µM (inactive)	67.5 µM (inactive)	47 µM (inactive)	75.3 µM (inactive)	39.6 µM (inactive)	26.5 µM (inactive)	38.4 µM (inactive)	33.8 µM (inactive)	> 100 µM (inactive)	31.2 µM (inactive)	47.4 µM (inactive)	53.8 µM (inactive)	20.8 µM (inactive)	33.3 µM (inactive)	35.7 µM (inactive)	20.2 µM (inactive)	70.1 µM (inactive)	79.6 µM (inactive)	30.9 µM (inactive)
Cc1nc(Nc2ccccc2Cl)sc1C(=O)CC(=O)C(N)=O	57.4 µM (inactive)	29.3 µM (inactive)	75.3 µM (inactive)	28.2 µM (inactive)	32.7 µM (inactive)	34.8 µM (inactive)	19.7 µM (inactive)	18.8 µM (inactive)	31.3 µM (inactive)	41 µM (inactive)	19.7 µM (inactive)	29 µM (inactive)	> 100 µM (inactive)	51.4 µM (inactive)	> 100 µM (inactive)	32.6 µM (inactive)	21.2 µM (inactive)	> 100 µM (inactive)	54.7 µM (inactive)	26.4 µM (inactive)
C[n+]1[n-]o/c(=N\N=O)c1-c1cc(-c2/c(=N/N=O)o[n-][n+]2C)cc(-c2/c(=N\N=O)o[n-][n+]2C)c1	> 100 µM (inactive)	> 100 µM (inactive)	> 100 µM (inactive)	> 100 µM (inactive)	> 100 µM (inactive)	> 100 µM (inactive)	> 100 µM (inactive)	> 100 µM (inactive)	> 100 µM (inactive)	> 100 µM (inactive)	> 100 µM (inactive)	> 100 µM (inactive)	> 100 µM (inactive)	> 100 µM (inactive)	> 100 µM (inactive)	> 100 µM (inactive)	> 100 µM (inactive)	> 100 µM (inactive)	> 100 µM (inactive)	> 100 µM (inactive)
c1ccc(-c2cccc(-c3ccccn3)n2)nc1 [TERPYRIDINE]	0.397 µM (active)	0.394 µM (active)	0.164 µM (active)	0.753 µM (active)	0.385 µM (active)	0.288 µM (active)	0.409 µM (active)	0.5 µM (active)	0.321 µM (active)	0.935 µM (active)	1.09 µM (active)	1.06 µM (active)	0.324 µM (active)	0.298 µM (active)	0.425 µM (active)	0.382 µM (active)	0.254 µM (active)	0.316 µM (active)	0.453 µM (active)	0.308 µM (active)
C=Cc1nc2nnc(CCCCCCCCc3nnc4nc(C=C)[nH]n34)n2[nH]1	95.5 µM (inactive)	80.7 µM (inactive)	> 100 µM (inactive)	67.8 µM (inactive)	> 100 µM (inactive)	62.5 µM (inactive)	> 100 µM (inactive)	> 100 µM (inactive)	63.1 µM (inactive)	> 100 µM (inactive)	40.7 µM (inactive)	> 100 µM (inactive)	> 100 µM (inactive)	75.3 µM (inactive)	31.4 µM (inactive)	57.8 µM (inactive)	> 100 µM (inactive)	> 100 µM (inactive)	83.8 µM (inactive)	47.4 µM (inactive)
CC1OC(OC2C(O)C(O)C(O)C(O)C2O)C(N)CC1NC(=N)C(=O)O (stereo not given)	> 100 µM (inactive)	> 100 µM (inactive)	> 100 µM (inactive)	> 100 µM (inactive)	> 100 µM (inactive)	> 100 µM (inactive)	> 100 µM (inactive)	> 100 µM (inactive)	> 100 µM (inactive)	> 100 µM (inactive)	> 100 µM (inactive)	> 100 µM (inactive)	> 100 µM (inactive)	> 100 µM (inactive)	> 100 µM (inactive)	> 100 µM (inactive)	> 100 µM (inactive)	> 100 µM (inactive)	> 100 µM (inactive)	> 100 µM (inactive)
CCCc1cc(=O)oc2c(C=O)c(O)cc(O)c12	17.5 µM (inactive)	27 µM (inactive)	22.8 µM (inactive)	20.3 µM (inactive)	26.5 µM (inactive)	29.9 µM (inactive)	25.1 µM (inactive)	22.1 µM (inactive)	27.4 µM (inactive)	25.8 µM (inactive)	19.5 µM (inactive)	21.8 µM (inactive)	27.5 µM (inactive)	16.7 µM (inactive)	24.6 µM (inactive)	24.8 µM (inactive)	17.7 µM (inactive)	18.7 µM (inactive)	22 µM (inactive)	23.3 µM (inactive)
Cc1cn(C2CC(N=[N+]=[N-])C(CO)O2)c(=O)n(CCCCBr)c1=O (stereo not given)	35.6 µM (inactive)	60.5 µM (inactive)	> 100 µM (inactive)	96.8 µM (inactive)	> 100 µM (inactive)	> 100 µM (inactive)	26.3 µM (inactive)	> 100 µM (inactive)	63.8 µM (inactive)	> 100 µM (inactive)	> 100 µM (inactive)	> 100 µM (inactive)	> 100 µM (inactive)	65.5 µM (inactive)	> 100 µM (inactive)	> 100 µM (inactive)	> 100 µM (inactive)	40.9 µM (inactive)	> 100 µM (inactive)	95.1 µM (inactive)
O=c1c2ccccc2n2nnc3ccc(NCCNCCO)c1c32	2.85 µM (inactive)	3.24 µM (inactive)	1.91 µM (inactive)	2.31 µM (inactive)	0.824 µM (active)	2.06 µM (inactive)	1.29 µM (inactive)	0.74 µM (active)	1.08 µM (active)	3.05 µM (inactive)	1.89 µM (inactive)	0.71 µM (active)	0.112 µM (active)	1.51 µM (inactive)	3.32 µM (inactive)	0.679 µM (active)	0.946 µM (active)	1.7 µM (inactive)	0.908 µM (active)	0.361 µM (active)
CCOC(=O)c1c(N2CCCC2)ncn(C)c1=S	> 100 µM (inactive)	> 100 µM (inactive)	> 100 µM (inactive)	> 100 µM (inactive)	> 100 µM (inactive)	> 100 µM (inactive)	> 100 µM (inactive)	> 100 µM (inactive)	> 100 µM (inactive)	> 100 µM (inactive)	> 100 µM (inactive)	> 100 µM (inactive)	> 100 µM (inactive)	> 100 µM (inactive)	> 100 µM (inactive)	> 100 µM (inactive)	> 100 µM (inactive)	> 100 µM (inactive)	> 100 µM (inactive)	> 100 µM (inactive)
CC(C)OC(=O)/C=C/C(=O)O/C=C/[N+](=O)[O-]	36.5 µM (inactive)	23 µM (inactive)	30 µM (inactive)	26.7 µM (inactive)	> 100 µM (inactive)	27.9 µM (inactive)	26.6 µM (inactive)	24.5 µM (inactive)	8.55 µM (inactive)	31.7 µM (inactive)	14.1 µM (inactive)	25.4 µM (inactive)	30.4 µM (inactive)	20.5 µM (inactive)	19.9 µM (inactive)	60.7 µM (inactive)	16.6 µM (inactive)	31.7 µM (inactive)	15.7 µM (inactive)	15.9 µM (inactive)
CC(C)=CCN1c2ccccc2NC(=O)CC1C (stereo not given)	> 100 µM (inactive)	> 100 µM (inactive)	> 100 µM (inactive)	> 100 µM (inactive)	71.1 µM (inactive)	> 100 µM (inactive)	> 100 µM (inactive)	> 100 µM (inactive)	49.8 µM (inactive)	> 100 µM (inactive)	83.8 µM (inactive)	> 100 µM (inactive)	> 100 µM (inactive)	> 100 µM (inactive)	28.8 µM (inactive)	> 100 µM (inactive)	> 100 µM (inactive)	70.6 µM (inactive)	> 100 µM (inactive)	> 100 µM (inactive)
